Values quoted from earlier work in patent publication US20100093842A1, “Laulimalide Analogs and Uses Thereof” (EISAI CO. LTD., priority 2003, published 2010).

Legend:
[1] = tested on: multi-drug resistant (MDR) cell lines that over express the P-glycoprotein pump (P-gp); settings: cell lines over expressing P-gp
tubulin = settings: low micromolar concentrations; compared with equivalent concentrations of Laulimalide

| SMILES | in vitro anti-mitotic activity (several cancer lines; in vitro) | cytotoxic activity (several cancer lines; several cancer lines) | activity against multi-drug resistant (MDR) cell lines [1] | rate of polymerization (tubulin) | tubulin polymer formed (tubulin) |
| --- | --- | --- | --- | --- | --- |
| C=C1C[C@H](C)C[C@@H]2CC=C[C@@H](C/C=C\C(=O)O[C@H]([C@@H](O)/C=C/[C@@H]3CC(C)=CCO3)C[C@@H]3O[C@H]3[C@@H](O)C1)O2 [Laulimalide] | 5 to 12 nM | potent cytotoxic activity | show activity against multi-drug resistant (MDR) cell lines |  |  |
| CC(=O)O[C@H]1C(=O)[C@@]2(C)[C@H]([C@H](OC(=O)c3ccccc3)[C@]3(O)C[C@H](OC(=O)[C@H](O)[C@@H](NC(=O)c4ccccc4)c4ccccc4)C(C)=C1C3(C)C)[C@]1(OC(C)=O)CO[C@@H]1C[C@@H]2O [Paclitaxel] |  |  |  | faster | more tubulin polymer was formed |
